Source: patent US10730833B2, “Synthesis of diindolylmethanes and indolo[3,2-b]carbazoles, compounds formed thereby, and pharmaceutical compositions containing them” (Wisconsin Alumni Research Foundation, priority 2014, dated 2020)

Target: AhR (Homo sapiens (Human), UniProt P35869)
Test: ethoxyresorufin-O-deethylase (EROD) assay, AhR activation in HepG2 cells
Type: cell-based
Description: The human Hep G2 cell line from the Small Molecule Screening and Synthesis Facility (UWCCC, Madison, Wis.) and was maintained in DMEM medium supplemented with 10% FBS. Cells were incubated at 37° C. in a humidified atmosphere supplemented with 5% CO2.
Preparation of cells: Cells were cleaved from T75 flasks with 0.05% trypsin. The cells were then collected by spinning at 1 g for 4 min. Excess media containing trypsin was removed from the pellet, which was then re-suspended in growth media. The cells were then counted using a hemocytometer. Cells were plated in sterile 96-well clear bottom black culture plates at a density of 20,000 cells per well in 0.1 mL of media. The cells were then incubated for 24 h at 37° C. in a humidified atmosphere supplemented with 5% CO2.
The ethoxyresorufin-O-deethylase (EROD) assay was performed on cell cultures of human Hep G2 cells. Briefly, 24 h after plating, cells in 96-well plates were treated with AhR agonists and allowed to incubate for 24 h. Each well was then rinsed with 200 uL of PBS buffer twice. To each well was then added 100 uL of 150 nM solution of 7-ethoxyresurufin and allowed to incubate for 2 h. Fluorescence measurements were obtained with a Safire II micro plate reader with excitation at 520 nm with a 25 nm bandwidth and emission at 595 nm with a 20 nm bandwidth.
The bioactivity of malassezin analogs was then investigated. The well-documented ethoxyresorufin-O-deethylase (EROD) assay was used to determine the EC50 values of the compounds towards AhR activation in HepG2 cells. Donato, M. T.; Gomezlechon, M. J.; Castell, J. V. Anal. Biochem. 1993, 213, 29; van Tonder, J. J., University of Pretoria Z.A., Thesis, 2011. This assay measures the induction of cytochrome P450-1A1 (CYP1A1), which is a major outcome of AhR activation. Whyte, J. J.; Jung, R. E.; Schmitt, C. J.; Tillitt, D. E. Crit. Rev. Toxicol. 2000, 30, 347. CYP1A1 selectively converts 7-ethoxyresorufin to the fluorescent product resorufin.

Chain of AhR (P35869 11-848): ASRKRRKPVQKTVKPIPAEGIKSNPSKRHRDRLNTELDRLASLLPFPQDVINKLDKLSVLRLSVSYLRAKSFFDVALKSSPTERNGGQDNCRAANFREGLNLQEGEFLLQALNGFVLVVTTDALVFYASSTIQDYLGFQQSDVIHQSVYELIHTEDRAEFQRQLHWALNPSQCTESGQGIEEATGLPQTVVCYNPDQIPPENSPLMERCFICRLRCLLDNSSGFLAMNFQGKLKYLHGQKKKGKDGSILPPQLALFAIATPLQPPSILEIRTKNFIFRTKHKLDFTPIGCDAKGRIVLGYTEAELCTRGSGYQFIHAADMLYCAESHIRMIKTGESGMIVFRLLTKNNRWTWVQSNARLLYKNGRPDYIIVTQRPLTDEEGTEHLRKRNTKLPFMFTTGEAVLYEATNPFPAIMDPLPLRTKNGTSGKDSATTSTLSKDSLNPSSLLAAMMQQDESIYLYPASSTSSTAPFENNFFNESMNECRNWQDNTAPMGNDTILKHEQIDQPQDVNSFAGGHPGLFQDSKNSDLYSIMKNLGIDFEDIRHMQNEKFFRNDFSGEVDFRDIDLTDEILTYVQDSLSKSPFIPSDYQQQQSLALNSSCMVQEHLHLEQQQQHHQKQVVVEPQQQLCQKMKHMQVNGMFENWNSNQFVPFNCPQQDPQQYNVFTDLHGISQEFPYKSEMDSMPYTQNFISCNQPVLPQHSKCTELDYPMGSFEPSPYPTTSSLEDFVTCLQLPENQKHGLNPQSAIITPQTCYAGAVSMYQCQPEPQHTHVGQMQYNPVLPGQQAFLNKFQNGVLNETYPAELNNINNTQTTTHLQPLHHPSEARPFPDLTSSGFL

AhR potency (EC50) compared with malassezin, the positive control | Compound
more potent than the positive control | O=Cc1c(Cc2c[nH]c3ccc(Cl)cc23)[nH]c2ccccc12 [Compound 11a]
slightly weaker agonist | O=Cc1c(Cc2c[nH]c3c(Cl)cccc23)[nH]c2ccccc12 [Compound 11b]
behaved similarly to malassezin | COc1ccc2[nH]cc(Cc3[nH]c4ccccc4c3C=O)c2c1 [Compound 11c]

Compound | AhR potency (EC50) compared with malassezin, the positive control
Cn1cc(Cc2[nH]c3ccccc3c2C=O)c2ccccc21 [Compound 11d] | about five times lower than that of malassezin
